target: T1, human TRPA1 (Homo sapiens (Human), UniProt O75762); assay: IC50 determination on the human TRPA1 channel, calcium fluorescence (Hamamatsu FDSS plate reader); type: cell-based; conditions: CHO cells expressing human TRPA1; block of cinnamaldehyde induced calcium influx; 20 minutes compound incubation; Hill coefficient fixed to 1.5; read-out: hTRPA1 AUC IC50
Description: IC50s (effective concentration) of compounds on the human TRPA1 channel were determined using a Hamamatsu FDSS fluorescence plate reader. CHO cells expressing human TRPA1 were plated into 384-well plates, incubated overnight at 37 C, and loaded with BD calcium indicator dye for 1 hr at 37° C. followed by 15 minutes. at room temperature. The assay buffer was Hank's Balanced Salt Solution (HBSS) containing 20 mM HEPES (pH readjusted to 7.4) along with 0.02% BSA.
Following dye load and plate cool down, compounds were added to the cells using the FDSS while monitoring fluorescence to determine whether any of the test compounds have TRPA1 agonist activity. Plates were then incubated with compound for 20 minutes at room temperature prior to adding agonist. Following this incubation, […] cinnamaldehyde was added to all wells of the plate and block of this cinnamaldehyde induced calcium influx was measured.
Fixing the Hill coefficient will generally reduce variability of the IC50 determination. The IC50s were examined by eye to make sure the MIN and MAX points were set correctly prior to validation of the results.

T1 sequence (O75762 whole entry): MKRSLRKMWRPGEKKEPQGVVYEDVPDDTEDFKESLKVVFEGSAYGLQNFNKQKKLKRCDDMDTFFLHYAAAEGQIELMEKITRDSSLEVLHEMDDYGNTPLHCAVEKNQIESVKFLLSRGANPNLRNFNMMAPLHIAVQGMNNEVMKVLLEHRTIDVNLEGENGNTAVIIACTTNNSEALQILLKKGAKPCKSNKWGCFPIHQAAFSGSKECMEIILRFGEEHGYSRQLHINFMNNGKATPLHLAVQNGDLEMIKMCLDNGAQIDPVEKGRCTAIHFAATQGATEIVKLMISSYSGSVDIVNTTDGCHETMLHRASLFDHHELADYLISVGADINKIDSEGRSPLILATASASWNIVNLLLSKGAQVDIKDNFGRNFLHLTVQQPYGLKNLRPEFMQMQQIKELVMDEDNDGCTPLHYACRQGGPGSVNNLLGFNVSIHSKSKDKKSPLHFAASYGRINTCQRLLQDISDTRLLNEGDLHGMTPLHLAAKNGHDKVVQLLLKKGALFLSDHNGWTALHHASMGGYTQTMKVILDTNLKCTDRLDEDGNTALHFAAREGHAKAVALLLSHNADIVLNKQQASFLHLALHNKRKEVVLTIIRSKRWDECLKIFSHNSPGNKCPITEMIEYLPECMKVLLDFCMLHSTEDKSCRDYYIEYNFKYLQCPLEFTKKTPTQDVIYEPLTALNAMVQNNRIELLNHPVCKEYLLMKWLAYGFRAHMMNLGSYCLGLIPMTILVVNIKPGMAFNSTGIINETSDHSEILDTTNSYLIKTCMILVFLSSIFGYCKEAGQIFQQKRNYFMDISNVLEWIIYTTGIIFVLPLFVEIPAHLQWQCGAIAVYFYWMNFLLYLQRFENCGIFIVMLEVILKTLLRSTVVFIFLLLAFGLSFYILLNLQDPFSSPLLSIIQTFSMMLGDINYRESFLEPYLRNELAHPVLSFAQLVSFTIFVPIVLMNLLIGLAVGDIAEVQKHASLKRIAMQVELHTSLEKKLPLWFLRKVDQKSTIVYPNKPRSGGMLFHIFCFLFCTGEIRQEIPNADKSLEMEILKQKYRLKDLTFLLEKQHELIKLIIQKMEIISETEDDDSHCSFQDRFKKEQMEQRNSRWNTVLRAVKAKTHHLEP

Row | IC50 [nM] | SMILES
1 | 268 | C[C@@]1(C(=O)NCc2cc(-c3ccc(C(F)(F)F)cn3)ncn2)CCCN1S(=O)(=O)c1ccc(F)cc1 [Example 14, (S)-1-(4-fluorophenylsulfonyl)-2-methyl-N-((6-(5-(trifluoromethyl)pyridin-2-yl)pyrimidin-4-yl)methyl)pyrrolidine-2-carboxamide]
2 | 7 | C[C@@]1(C(=O)NCc2cc(-c3ccc(C(F)(F)F)cc3)ncn2)C[C@@H](F)CN1S(=O)(=O)c1ccc(F)cc1 (single isomer, unassigned) [Example 20]
3 | 23 | O=C(NCc1cc(-c2ccc(C(F)(F)F)cc2)ncn1)[C@@H]1[C@H]2CC[C@H](C2)N1S(=O)(=O)c1ccc(F)cc1 [Example 33, (1R,3S,4S)-2-(4-fluorophenylsulfonyl)-N-((6-(4-(trifluoromethyl)phenyl)pyrimidin-4-yl)methyl)-2-azabicyclo[2.2.1]heptane-3-carboxamide]
4 | 30 | O=C(NCc1cn(-c2ccc(C(F)(F)F)nc2)nc1Cl)[C@@H]1C[C@@H](F)CN1S(=O)(=O)c1ccc(F)cc1 [Example 15, (2S,4R)—N-([3-chloro-1-[6-(trifluoromethyl)pyridin-3-yl]-1H-pyrazol-4-yl]methyl)-4-fluoro-1-[(4-fluorobenzene)sulfonyl]pyrrolidine-2-carboxamide]
5 | 32 | O=C(NCc1cc(-c2ccc(SC(F)(F)F)cc2)ncn1)[C@@H]1C[C@@H](F)CN1S(=O)(=O)c1ccc(F)cc1 [Example 29, (2S,4R)-4-fluoro-1-(4-fluorophenylsulfonyl)-N-((6-(4-(trifluoromethylthio)phenyl)pyrimidin-4-yl)methyl)pyrrolidine-2-carboxamide]
6 | 27 | O=C(NCc1cc(-c2ccc(C(F)(F)F)nc2)ncn1)[C@@H]1C[C@@H](F)CN1S(=O)(=O)c1ccc(Cl)s1 [Example 24, (2S,4R)-1-(5-chlorothiophen-2-ylsulfonyl)-4-fluoro-N-((6-(6-(trifluoromethyl)pyridin-3-yl)pyrimidin-4-yl)methyl)pyrrolidine-2-carboxamide]
7 | 40 | O=C(NCc1cc(-c2ccc(C(F)(F)F)nc2)ncn1)[C@@H]1[C@H]2CC[C@H](C2)N1S(=O)(=O)c1ccc(F)cc1 [Example 34, (1R,3S,4S)-2-(4-fluorophenylsulfonyl)-N-((6-(6-(trifluoromethyl)pyridin-3-yl)pyrimidin-4-yl)methyl)-2-azabicyclo[2.2.1]heptane-3-carboxamide]
8 | 252 | COC[C@@]1(C(=O)NCc2cc(-c3ccc(C(F)(F)F)nc3)ncn2)CCCN1S(=O)(=O)c1ccc(F)cc1 [Example 30, (R)-1-(4-fluorophenylsulfonyl)-2-(methoxymethyl)-N-((6-(6-(trifluoromethyl)pyridin-3-yl)pyrimidin-4-yl)methyl)pyrrolidine-2-carboxamide]
9 | 55 | O=C(NCc1cn(-c2ccc(C(F)(F)F)nc2)nc1C1CC1)[C@@H]1C[C@@H](F)CN1S(=O)(=O)c1ccc(F)cc1 [Example 17, (2S,4R)—N-([3-cyclopropyl-1-[6-(trifluoromethyl)pyridin-3-yl]-1H-pyrazol-4-yl]methyl)-4-fluoro-1-[(4-fluorobenzene)sulfonyl]pyrrolidine-2-carboxamide]
10 | 8 | O=C(NCc1cn(-c2ccc(C(F)(F)F)cc2)nc1Cl)[C@@H]1C[C@@H](F)CN1S(=O)(=O)c1ccc(F)cc1 [Example 16, (2S,4R)—N-([3-chloro-1-[4-(trifluoromethyl)phenyl]-1H-pyrazol-4-yl]methyl)-4-fluoro-1-[(4-fluorobenzene)sulfonyl]pyrrolidine-2-carboxamide]
11 | 434 | O=C(NCc1cc(N2CCC(C(F)(F)F)CC2)ncn1)[C@@H]1C[C@@H](F)CN1S(=O)(=O)c1ccc(F)cc1 [Example 11, (2S,4R)-4-fluoro-1-(4-fluorophenylsulfonyl)-N-((6-(4-(trifluoromethyl)piperidin-1-yl)pyrimidin-4-yl)methyl)pyrrolidine-2-carboxamide]

Row | SMILES | IC50 [nM]
12 | C[C@@]1(C(=O)NCc2cc(-c3ccc(C(F)(F)F)nc3)ncn2)C[C@@H](F)CN1S(=O)(=O)c1ccc(F)cc1 (single isomer, unassigned) [Example 19] | 16
13 | O=C(NCc1cc(-c2ccc(C(F)(F)F)nc2)ncn1)[C@@H]1C[C@H](F)CN1S(=O)(=O)c1ccc(F)cc1 [Example 4, (2S,4S)-4-fluoro-1-(4-fluorophenylsulfonyl)-N-((6-(6-(trifluoromethyl)pyridin-3-yl)pyrimidin-4-yl)methyl)pyrrolidine-2-carboxamide] | 819
14 | O=C(NCc1cc(-c2ccc(C(F)(F)F)nc2)ncn1)[C@@H]1[C@@H](F)CCN1S(=O)(=O)c1ccc(F)cc1 [Example 35, (2R,3S)-3-fluoro-1-(4-fluorophenylsulfonyl)-N-((6-(6-(trifluoromethyl)pyridin-3-yl)pyrimidin-4-yl)methyl)pyrrolidine-2-carboxamide] | 23
15 | O=C(NCc1cc(-c2ccc(C(F)(F)F)nc2)ncn1)[C@@H]1C[C@@H](F)CN1S(=O)(=O)c1ccc(F)cc1 [Example 3, (2S,4R)-4-fluoro-1-(4-fluorophenylsulfonyl)-N-((6-(6-(trifluoromethyl)pyridin-3-yl)pyrimidin-4-yl)methyl)pyrrolidine-2-carboxamide] | 97

target: T1, human TRPA1; assay: FLIPR Tetra calcium influx assay, block of cinnamaldehyde-induced calcium influx in CHO cells expressing TRPA1 (human); type: cell-based; conditions: 20 min compound incubation, 75 uM cinnamaldehyde (~EC80), Hill coefficient fixed to 1.5, read-out: hTRPA1 AUC IC50
Outline: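 CHO cells loaded with calcium dye, preincubated with compounds 20 min at room temperature in HBSS/20 mM HEPES pH 7.4 with 0.02% BSA. Channels activated by ~EC80 cinnamaldehyde (75 uM human, 45 uM rat); block of calcium influx read on FLIPR Tetra, IC50 fitted with fixed Hill coefficient.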

Row | IC50 [nM] | SMILES
16 | 126 | COc1nn(-c2cnc(C(F)(F)F)nc2)cc1CNC(=O)[C@@H]1C[C@@H](F)CN1S(=O)(=O)c1ccc(F)cc1 [Example 132, (2S,4R)-4-fluoro-1-[(4-fluorobenzene)sulfonyl]-N-([3-methoxy-1-[2-(trifluoromethyl)pyrimidin-5-yl]-1H-pyrazol-4-yl]methyl)pyrrolidine-2-carboxamide]
17 | 102 | O=C(NCc1cc(-c2ccc(C(F)(F)F)cn2)ccn1)[C@@H]1C[C@@H](F)CN1S(=O)(=O)c1ccc(F)cc1 [Example 131, (2S,4R)-4-fluoro-1-(4-fluorophenyl)sulfonyl-N-[[4-[5-(trifluoromethyl)-2-pyridyl]-2-pyridyl]methyl]pyrrolidine-2-carboxamide]
18 | 66 | O=C(NCc1cc(-c2cnc(C(F)(F)F)cn2)c(F)cn1)[C@@H]1C[C@@H](F)CN1S(=O)(=O)c1ccc(F)cc1 [Example 102, (2S,4R)-4-fluoro-N-([5-fluoro-4-[5-(trifluoromethyl)pyrazin-2-yl]pyridin-2-yl]methyl)-1-[(4-fluorobenzene)sulfonyl]pyrrolidine-2-carboxamide]
19 | 119 | O=C(NCc1cc(F)cc(-n2cc(C(F)(F)F)cn2)c1)[C@@H]1C[C@@H](F)CN1S(=O)(=O)c1ccc(F)cc1 [Example 86, (2S,4R)-4-fluoro-1-(4-fluorophenyl)sulfonyl-N-[[3-fluoro-5-[4-(trifluoromethyl)pyrazol-1-yl]phenyl]methyl]pyrrolidine-2-carboxamide]
20 | 49 | O=C(NCc1cc(-c2ccc(SC(F)(F)F)cc2)ncn1)[C@@H]1C[C@@H](F)CN1S(=O)(=O)c1ccc(F)cc1 [Example 147, (2S,4R)-4-fluoro-1-(4-fluorophenylsulfonyl)-N-((6-(4-(trifluoromethylthio)phenyl)pyrimidin-4-yl)methyl)pyrrolidine-2-carboxamide]
21 | 175 | Nc1nc(C(F)(F)F)ccc1-c1cc(CNC(=O)[C@@H]2C[C@@H](F)CN2S(=O)(=O)c2ccc(F)cc2)ccn1 [Example 178, (2S,4R)—N-[[2-[2-amino-6-(trifluoromethyl)-3-pyridyl]-4-pyridyl]methyl]-4-fluoro-1-(4-fluorophenyl)sulfonyl-pyrrolidine-2-carboxamide]
22 | 404 | O=C(NCc1cc(N2CCC(F)(F)CC2)c(F)cn1)[C@@H]1C[C@@H](F)CN1S(=O)(=O)c1ccc(F)cc1 [Example 128, (2S,4R)—N-[[4-(4,4-difluoro-1-piperidyl)-5-fluoro-2-pyridyl]methyl]-4-fluoro-1-(4-fluorophenyl)sulfonyl-pyrrolidine-2-carboxamide]
23 | 12 | O=C(NCc1cc(F)cc(-c2ccc(C(F)(F)F)cn2)c1)[C@@H]1C[C@@H](F)CN1S(=O)(=O)c1ccc(F)cc1 [Example 95, (2S,4R)-4-fluoro-1-(4-fluorophenyl)sulfonyl-N-[[3-fluoro-5-[5-(trifluoromethyl)-2-pyridyl]phenyl]methyl]pyrrolidine-2-carboxamide]
24 | 9 | O=C(NCc1cc(-c2ccc(C(F)(F)F)cn2)cc(F)n1)[C@@H]1C[C@@H](F)CN1S(=O)(=O)c1ccc(F)cc1 [Example 49, (2S,4R)-4-fluoro-N-([6-fluoro-4-[5-(trifluoromethyl)pyridin-2-yl]pyridin-2-yl]methyl)-1-[(4-fluorobenzene)sulfonyl]pyrrolidine-2-carboxamide]

Row | SMILES | IC50 [nM]
25 | O=C(NCc1cc(-c2ccc(C(F)(F)F)nc2)ncn1)[C@@H]1[C@@H](F)CCN1S(=O)(=O)c1ccc(F)cc1 [Example 136, (2R,3S)-3-fluoro-1-(4-fluorophenylsulfonyl)-N-((6-(6-(trifluoromethyl)pyridin-3-yl)pyrimidin-4-yl)methyl)pyrrolidine-2-carboxamide] | 21

From patent US11236046B2, “Substituted heterocyclic sulfonamide compounds useful as TRPA1 modulators” (Genentech, Inc., priority 2013, dated 2022)
